Counter-ions that a name gives are not always drawn.

The target of this assay is T1, HCV polymerase (Hepatitis C virus genotype 1b, UniProt P26663).
T1 construct: a region encoding NS5B (591 amino acids; J Virol 1991 Mar, 65(3), 1105-13) was amplified by PCR; 6 His (N); made in house; host or cells: Escherichia coli
T1 sequence (P26663 2420-3010): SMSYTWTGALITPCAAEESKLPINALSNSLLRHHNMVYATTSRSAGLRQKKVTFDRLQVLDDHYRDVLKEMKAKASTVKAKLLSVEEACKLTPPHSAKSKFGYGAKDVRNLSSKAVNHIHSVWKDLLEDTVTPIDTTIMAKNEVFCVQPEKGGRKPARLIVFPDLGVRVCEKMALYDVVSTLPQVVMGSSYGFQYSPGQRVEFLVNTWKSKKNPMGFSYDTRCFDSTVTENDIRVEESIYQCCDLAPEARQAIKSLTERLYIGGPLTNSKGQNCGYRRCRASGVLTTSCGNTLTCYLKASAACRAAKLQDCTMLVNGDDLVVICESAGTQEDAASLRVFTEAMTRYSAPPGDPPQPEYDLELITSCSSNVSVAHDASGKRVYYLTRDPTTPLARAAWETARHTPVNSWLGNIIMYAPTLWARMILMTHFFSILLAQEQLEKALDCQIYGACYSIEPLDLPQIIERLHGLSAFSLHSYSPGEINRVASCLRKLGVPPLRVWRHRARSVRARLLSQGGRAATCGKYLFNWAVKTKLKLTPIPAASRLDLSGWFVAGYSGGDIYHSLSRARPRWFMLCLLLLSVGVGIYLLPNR
Description: biochemical. Particulars: read-out: HCV polymerase inhibitory activity IC50.
One may read the IC50 as the concentration needed to halve the response being measured. On to `O=C(O)c1ccc2c(c1)nc(-c1ccc(OCc3cc(C(=O)N4CC[C@H](O)[C@H](O)C4)ccc3-c3ccc(Cl)cc3)cc1)n2C1CCCCC1` (stereo in doubt) [Example 348, 2-{4-[2-(4-chlorophenyl)-5-(3,4-dihydroxypiperidin-1-ylcarbonyl)benzyloxy]phenyl}-1-cyclohexylbenzimidazole-5-carboxylic acid hydrochloride], for which the IC50 turned out to be 13 nM. As for `O=C(O)c1ccc2c(c1)nc(-c1ccc(/C=C/c3ccccc3)cc1)n2C1CCCCC1` [Example 11, 1-cyclohexyl-2-{4-[(E)-2-phenylvinyl]phenyl}-benzimidazole-5-carboxylic acid], the figure is 530 nM.

As to `O=C(O)c1ccc2c(c1)nc(-c1ccc(OCc3ccccc3)cc1)n2C1CCCC1` [Example 12, 2-(4-benzyloxyphenyl)-1-cyclopentylbenzimidazole-5-carboxylic acid], the half-maximal inhibitory concentration (IC50) worked out at 600 nM. As for `CC(C)(C)c1ccc(COc2ccc(-c3nc4cc(C(=O)O)ccc4n3C3CCCC3)cc2)cc1` [Example 43, 2-[4-(4-tert-butylbenzyloxy)phenyl]-1-cyclopentylbenzimidazole-5-carboxylic acid], the figure is 580 nM; as for `O=C(O)c1ccc(COc2ccc(-c3nc4cc(C(=O)O)ccc4n3C3CCCC3)cc2)cc1` [Example 44, 2-[4-(4-carboxybenzyloxy)phenyl]-1-cyclopentylbenzimidazole-5-carboxylic acid], 950 nM. As for `O=C(O)c1ccc2c(c1)nc(-c1ccc(OCc3ccc(Cl)cc3)cc1)n2C1CCCC1` [Example 45, 2-[4-(4-chlorobenzyloxy)phenyl]-1-cyclopentylbenzimidazole-5-carboxylic acid], the figure is 400 nM.

Turning to `O=C(O)c1ccc2c(c1)nc(-c1ccc(OCc3ccc(Cl)s3)cc1)n2C1CCCC1` [Example 46, 2-{4-[(2-chloro-5-thienyl)methoxy]phenyl}-1-cyclopentylbenzimidazole-5-carboxylic acid], the IC50 came out at 470 nM. On to `O=C(O)c1ccc2c(c1)nc(-c1ccc(OCc3ccc(C(F)(F)F)cc3)cc1)n2C1CCCC1` [Example 47, 1-cyclopentyl-2-[4-(4-trifluoromethylbenzyloxy)phenyl]benzimidazole-5-carboxylic acid], for which the 50% inhibitory concentration (IC50) was determined as 540 nM. On to `COc1ccc(COc2ccc(-c3nc4cc(C(=O)O)ccc4n3C3CCCC3)cc2)cc1` [Example 48, 1-cyclopentyl-2-[4-(4-methoxybenzyloxy)phenyl]benzimidazole-5-carboxylic acid], for which the 50% inhibitory concentration (IC50) is 440 nM.

Regarding `O=C(O)c1ccc2c(c1)nc(-c1ccc(OCc3ccncc3)cc1)n2C1CCCC1` [Example 49, 1-cyclopentyl-2-[4-(4-pyridylmethoxy)phenyl]benzimidazole-5-carboxylic acid hydrochloride], the IC50 is 940 nM.

Consider `Cc1noc(C)c1COc1ccc(-c2nc3cc(C(=O)O)ccc3n2C2CCCC2)cc1` [Example 51, 1-cyclopentyl-2-{4-[(3,5-dimethyl-4-isoxazolyl)methoxy]phenyl}-benzimidazole-5-carboxylic acid], for which the IC50 amounted to 1000 nM. As for `O=C(O)c1ccc2c(c1)nc(-c1ccc(OCc3ccccc3Cl)cc1)n2C1CCCC1` [Example 54, 2-[4-(2-chlorobenzyloxy)phenyl]-1-cyclopentylbenzimidazole-5-carboxylic acid], the 50% inhibitory concentration (IC50) was found to be 560 nM.

In the case of `O=C(O)c1ccc2c(c1)nc(-c1ccc(OCc3cccc(Cl)c3)cc1)n2C1CCCC1` [Example 55, 2-[4-(3-chlorobenzyloxy)phenyl]-1-cyclopentylbenzimidazole-5-carboxylic acid], the IC50 is 360 nM.

With `O=C(O)c1ccc2c(c1)nc(-c1ccc(OCc3ccc(Cl)c(Cl)c3)cc1)n2C1CCCC1` [Example 68, 1-cyclopentyl-2-[4-(3,4-dichlorobenzyloxy)phenyl]benzimidazole-5-carboxylic acid], the IC50 came to 280 nM.

For `O=C(O)c1ccc2c(c1)nc(-c1ccc(OC(c3ccccc3)c3ccccc3)cc1)n2C1CCCC1` [Example 70, 1-cyclopentyl-2-[4-(diphenylmethoxy)phenyl]benzimidazole-5-carboxylic acid], the 50% inhibitory concentration (IC50) was 190 nM. As for `O=C(O)c1ccc2c(c1)nc(-c1ccc(OCCc3ccccc3)cc1)n2C1CCCC1` [Example 71, 1-cyclopentyl-2-(4-phenethyloxyphenyl)benzimidazole-5-carboxylic acid], the figure is 620 nM. As for `O=C(O)c1ccc2c(c1)nc(-c1ccc(CCc3ccccc3)cc1)n2C1CCCCC1` [Example 77, 1-cyclohexyl-2-(4-phenethylphenyl)benzimidazole-5-carboxylic acid], the figure is 510 nM; as for `O=C(O)c1ccc2c(c1)nc(-c1ccc(OCc3cc(Cl)cc(Cl)c3)cc1)n2C1CCCCC1` [Example 81, 1-cyclohexyl-2-[4-(3,5-dichlorobenzyloxy)phenyl]benzimidazole-5-carboxylic acid], 180 nM; as for `O=C(O)c1ccc2c(c1)nc(-c1ccc(OC(c3ccccc3)c3ccccc3)cc1)n2C1CCCCC1` [Example 82, 1-cyclohexyl-2-[4-(diphenylmethoxy)phenyl]benzimidazole-5-carboxylic acid], 97 nM.

On to `CC(C)(C)c1cc(COc2ccc(-c3nc4cc(C(=O)O)ccc4n3C3CCCCC3)cc2)cc(C(C)(C)C)c1` [Example 83, 1-cyclohexyl-2-[4-(3,5-di-tert-butylbenzyloxy)phenyl]-benzimidazole-5-carboxylic acid], for which the IC50 was 520 nM. As for `O=C(O)c1ccc2c(c1)nc(-c1ccc(OCCc3ccc4ccccc4c3)cc1)n2C1CCCCC1` [Example 85, 1-cyclohexyl-2-{4-[2-(2-naphthyl)ethoxy]phenyl}benzimidazole-5-carboxylic acid], the figure is 170 nM; as for `O=C(O)c1ccc2c(c1)nc(-c1ccc(OCc3cccc4ccccc34)cc1)n2C1CCCCC1` [Example 86, 1-cyclohexyl-2-[4-(1-naphthyl)methoxyphenyl]benzimidazole-5-carboxylic acid], 130 nM. With `O=C(O)c1ccc2c(c1)nc(-c1ccc(N(Cc3ccccc3)Cc3ccccc3)cc1)n2C1CCCCC1` [Example 87, 1-cyclohexyl-2-[4-(dibenzylamino)phenyl]benzimidazole-5-carboxylic acid] the figure was 800 nM; with `O=C(O)c1ccc2c(c1)nc(-c1ccc(OCc3ccccc3-c3ccccc3)cc1)n2C1CCCCC1` [Example 88, 2-[4-(2-biphenylylmethoxy)phenyl]-1-cyclohexylbenzimidazole-5-carboxylic acid], 92 nM. Take `O=C(O)c1ccc2c(c1)nc(-c1ccc(OC(Cc3ccccc3)Cc3ccccc3)cc1)n2C1CCCCC1` [Example 90, 1-cyclohexyl-2-[4-(dibenzylmethoxy)phenyl]benzimidazole-5-carboxylic acid]: the IC50 worked out at 200 nM.

Consider `O=C(O)c1ccc2c(c1)nc(-c1ccc(OCC(=O)c3ccccc3)cc1)n2C1CCCCC1` [Example 91, 2-(4-benzoylmethoxyphenyl)-1-cyclohexylbenzimidazole-5-carboxylic acid], for which the IC50 is 530 nM.

With `O=C(O)c1ccc2c(c1)nc(-c1ccc(OCCOc3ccccc3)cc1)n2C1CCCCC1` [Example 96, 1-cyclohexyl-2-{4-[2-(phenoxy)ethoxy]phenyl}benzimidazole-5-carboxylic acid], the half-maximal inhibitory concentration (IC50) turned out to be 250 nM.

The record behind these values is patent US20040082635A1, “Fused cyclic compounds and medicinal use thereof” (priority 2001, published 2004).
